Structures can show the parent of a compound that is named as a salt.
Work on `CCC(C)N(C[C@@H]1CCc2[nH]c3ccc(F)cc3c2C1)C[C@H]1COc2ccc3nc(C)ccc3c2O1.Cl.O` (stereo partly drawn) (hydrate or solvate) [Example 58, N-{[(3R)-6-Fluoro-2,3,4,9-tetrahydro-1H-carbazol-3-yl]methyl}-N-{[(2S)-8-methyl-2,3-dihydro[1,4]dioxino[2,3-f]quinolin-2-yl]methyl}butan-2-amine monohydrochloride monohydrate] yielded a melting point of 235 to 256 °C. With `Cc1ccc2c3c(ccc2n1)OC[C@H](CN(C[C@@H]1CCc2[nH]c4ccc(F)cc4c2C1)C1CCCC1)O3.Cl.O` (hydrate or solvate) [Example 59, N-{[(3R)-6-Fluoro-2,3,4,9-tetrahydro-1H-carbazol-3-yl]methyl}-N-{[(2S)-8-methyl-2,3-dihydro[1,4]dioxino[2,3-f]quinolin-2-yl]methyl}cyclopentanamine monohydrochloride monohydrate] the melting point was 225 to 243 °C. For `Cc1ccc2c3c(ccc2n1)OC[C@H](CN(C[C@@H]1CCc2[nH]c4ccc(F)cc4c2C1)C1CCCCC1)O3.Cl.O` (hydrate or solvate) [Example 60, N-{[(3R)-6-fluoro-2,3,4,9-tetrahydro-1H-carbazol-3-yl]methyl}-N-{[(2S)-8-methyl-2,3-dihydro[1,4]dioxino[2,3-f]quinolin-2-yl]methyl}cyclohexanamine monohydrochloride monohydrate], the melting point was 207 to 218 °C. Compound `Cc1ccc2c3c(ccc2n1)OC[C@H](CN(C[C@H]1CCc2[nH]c4ccc(F)cc4c2C1)C(C)C)O3.Cl.O` (hydrate or solvate) [Example 61, N-{[(3S)-6-Fluoro-2,3,4,9-tetrahydro-1H-carbazol-3-yl]methyl}-N-{[(2S)-8-methyl-2,3-dihydro[1,4]dioxino[2,3-f]quinolin-2-yl]methyl}propan-2-amine monohydrochloride monohydrate] has a melting point of 228 to 240 °C. `CCC(C)N(C[C@H]1CCc2[nH]c3ccc(F)cc3c2C1)C[C@H]1COc2ccc3nc(C)ccc3c2O1.Cl.O` (stereo partly drawn) (hydrate or solvate) [Example 62, N-{[(3S)-6-Fluoro-2,3,4,9-tetrahydro-1H-carbazol-3-yl]methyl}-N-{[(2S)-8-methyl-2,3-dihydro[1,4]dioxino[2,3-f]quinolin-2-yl]methyl}butan-2-amine monohydrochloride monohydrate] showed a melting point of 246 to 257 °C. `Cc1ccc2c3c(ccc2n1)OC[C@H](CN(C[C@H]1CCc2[nH]c4ccc(F)cc4c2C1)C1CCCC1)O3.Cl.O` (hydrate or solvate) [Example 63, N-{[(3S)-6-Fluoro-2,3,4,9-tetrahydro-1H-carbazol-3-yl]methyl}-N-{[(2S)-8-methyl-2,3-dihydro[1,4]dioxino[2,3-f]quinolin-2-yl]methyl}cyclopentanamine monohydrochloride monohydrate] gave a melting point of 237 to 254 °C. `Cc1ccc2c3c(ccc2n1)OC[C@H](CN(C[C@H]1CCc2[nH]c4ccc(F)cc4c2C1)C1CCCCC1)O3.Cl.O` (hydrate or solvate) [Example 64, N-{[(3S)-6-Fluoro-2,3,4,9-tetrahydro-1H-carbazol-3-yl]methyl}-N-{[(2S)-8-methyl-2,3-dihydro[1,4]dioxino[2,3-f]quinolin-2-yl]methyl}cyclohexanamine monohydrochloride monohydrate] gave a melting point of 202 to 208 °C. For `Cc1ccc2c3c(ccc2n1)OC[C@H](CN(CC1CCc2c(c4cc(F)ccc4n2C)C1)C1CCCC1)O3.Cl.O` (stereo partly drawn) (hydrate or solvate) [Example 66, N-[(6-Fluoro-9-methyl-2,3,4,9-tetrahydro-1H-carbazol-3-yl)methyl]-N-{[(2S)-8-methyl-2,3-dihydro[1,4]dioxino[2,3-f]quinolin-2-yl]methyl}cyclopentanamine monohydrochloride monohydrate], the melting point was 206 to 222 °C. With `Cc1ccc2c3c(ccc2n1)OC[C@H](CN(CC1CCc2c(c4cc(F)ccc4n2C)C1)C1CCCCC1)O3.Cl.O` (stereo partly drawn) (hydrate or solvate) [Example 67, N-[(6-Fluoro-9-methyl-2,3,4,9-tetrahydro-1H-carbazol-3-yl)methyl]-N-{[(2S)-8-methyl-2,3-dihydro[1,4]dioxino[2,3-f]quinolin-2-yl]methyl}cyclohexanamine monohydrochloride monohydrate] the melting point was 204 to 225 °C. Compound `Cc1ccc2c3c(ccc2n1)OC[C@H](CN(C)C[C@H]1CCc2c(c4cc(F)ccc4n2C)C1)O3.Cl.O` (hydrate or solvate) [Example 68, {[(3S)-6-Fluoro-9-methyl-2,3,4,9-tetrahydro-1H-carbazol-3-yl]methyl}methyl{[(2S)-8-methyl-2,3-dihydro[1,4]dioxino[2,3-f]quinolin-2-yl]methyl}amine monohydrochloride monohydrate] has a melting point of 248 to 258 °C. In the case of `Cc1ccc2c3c(ccc2n1)OC[C@H](CN(C)C[C@@H]1CCc2c(c4cc(F)ccc4n2C)C1)O3.Cl.O` (hydrate or solvate) [Example 69, {[(3R)-6-Fluoro-9-methyl-2,3,4,9-tetrahydro-1H-carbazol-3-yl]methyl}methyl{[(2S)-8-methyl-2,3-dihydro[1,4]dioxino[2,3-f]quinolin-2-yl]methyl}amine monohydrochloride monohydrate], the melting point is reported as 244 to 256 °C. For `Cc1ccc2c3c(ccc2n1)OC[C@H](CNC1CCc2c([nH]c4ccc(F)cc24)C1)O3` (mixture of isomers) (as salt: hydrochloride) [Example 46, 6-Fluoro-N-{[(2S)-8-methyl-2,3-dihydro[1,4]dioxino[2,3-f]quinolin-2-yl]methyl}-2,3,4,9-tetrahydro-1H-carbazol-2-amine], the melting point was 226 to 228 °C (dec.). With `Cc1ccc2c3c(ccc2n1)OC[C@H](CNC[C@H]1CCc2[nH]c4ccccc4c2C1)O3` (single isomer, unassigned) (as salt: hydrochloride) [Example 100a] the melting point was 202 to 205 °C (dec.). With `Cc1ccc2c3c(ccc2n1)OC[C@H](CNC[C@@H]1CCc2[nH]c4ccccc4c2C1)O3` (single isomer, unassigned) (as salt: hydrochloride) [Example 100b] the melting point was 218 to 221 °C (dec.). `Cc1ccc2c3c(ccc2n1)OCC(CNCC1CCc2[nH]c4ccc(Cl)cc4c2C1)O3` (stereo not drawn) [Example 85, (6-Chloro-2,3,4,9-tetrahydro-1H-carbazol-3-ylmethyl)-(8-methyl-2,3-dihydro-[1,4]dioxino[2,3-f]quinolin-2-ylmethyl)-amine] gave a melting point of 235 to 237 °C.
